Measurements published in ChEMBL document CHEMBL1201862, “PubChem BioAssay data set” (2004).
Active and inactive are the calls of the source.

Tests used:
[1] = cells; type: functional, cell-based; details: HEK-CNG
[2] = test system: Jurkat; test: blockers of NF-kB activation in T cells – Jurkat, luciferase reporter, luminescence, B- and T-cell, dose response (AID 489004); type: functional, cell-based; details: Homo sapiens;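 further: NF-kB luciferase reporter Jurkat cells stimulated with PMA plus ionomycin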
[3] = target: T1, COUP transcription factor 2 (Homo sapiens, UniProt P24468); test: Luminescence-based cell-based high throughput dose response assay to identify inhibitors of COUP-TFII (NR2F2).; type: functional;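 further: HEK293 cells transiently cotransfected with COUP-TFII expression vector and reporter; luciferase reporter luminescence driven by COUP-TFII from the pX2-168 reporter plasmid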
T1 sequence (P24468 whole entry): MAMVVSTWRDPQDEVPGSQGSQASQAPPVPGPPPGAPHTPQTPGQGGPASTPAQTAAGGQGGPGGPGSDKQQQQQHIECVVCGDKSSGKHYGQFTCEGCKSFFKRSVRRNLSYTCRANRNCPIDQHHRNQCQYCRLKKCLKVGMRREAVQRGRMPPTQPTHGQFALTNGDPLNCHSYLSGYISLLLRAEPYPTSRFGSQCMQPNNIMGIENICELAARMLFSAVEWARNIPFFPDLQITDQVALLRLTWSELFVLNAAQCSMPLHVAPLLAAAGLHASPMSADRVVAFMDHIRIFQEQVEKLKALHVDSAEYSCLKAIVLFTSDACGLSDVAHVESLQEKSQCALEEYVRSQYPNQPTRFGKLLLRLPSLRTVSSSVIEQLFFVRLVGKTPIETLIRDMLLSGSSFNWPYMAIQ

[4] = target: Galanin receptor type 3 (Homo sapiens, UniProt O60755); test: Fluorescence-based cell-based primary high throughput dose response assay to identify antagonists of the Galanin Receptor 3 (GalR3).; type: functional
Galanin receptor type 3, sequence (O60755 whole entry): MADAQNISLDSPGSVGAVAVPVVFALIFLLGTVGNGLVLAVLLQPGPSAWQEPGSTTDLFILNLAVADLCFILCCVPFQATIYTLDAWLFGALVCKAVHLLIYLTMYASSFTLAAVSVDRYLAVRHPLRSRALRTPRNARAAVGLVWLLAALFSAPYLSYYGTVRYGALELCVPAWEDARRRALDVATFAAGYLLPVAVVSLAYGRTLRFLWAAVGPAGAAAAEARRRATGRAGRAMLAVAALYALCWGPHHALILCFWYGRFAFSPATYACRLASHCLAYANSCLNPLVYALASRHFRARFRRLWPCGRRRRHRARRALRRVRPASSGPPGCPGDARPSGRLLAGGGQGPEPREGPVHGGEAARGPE

[5] = HEK-293T viability loss, compound-treated – cell-based, uHTS hits, cytotoxicity control for B/T-cell NF-kB inhibitor project, dose response (AID 489019); type: functional;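 further: IC50 reflects cytotoxicity as loss of cell viability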
[6] = target: Galanin receptor type 2 (Homo sapiens, UniProt O43603); test: Dose Response cell-based high-throughput screening assay to identify antagonists of galanin receptor 2 (GALR2). [Related pubchem assays: 828, 866 ]; type: functional
Galanin receptor type 2, sequence (O43603 whole entry): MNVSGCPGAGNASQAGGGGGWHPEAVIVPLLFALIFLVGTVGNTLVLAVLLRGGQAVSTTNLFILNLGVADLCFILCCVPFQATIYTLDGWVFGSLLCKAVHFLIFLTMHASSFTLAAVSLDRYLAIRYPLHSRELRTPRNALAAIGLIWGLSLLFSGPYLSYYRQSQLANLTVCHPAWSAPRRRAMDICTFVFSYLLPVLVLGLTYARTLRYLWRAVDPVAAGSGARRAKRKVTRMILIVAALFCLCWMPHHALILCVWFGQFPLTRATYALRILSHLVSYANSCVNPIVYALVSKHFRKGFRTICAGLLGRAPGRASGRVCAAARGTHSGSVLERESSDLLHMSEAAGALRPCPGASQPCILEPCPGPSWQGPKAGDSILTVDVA

[7] = target: CAAX prenyl protease 1 (Saccharomyces cerevisiae S288c, UniProt P47154); test: yeast CAAX protease Ste24 inhibition – biochemical, S. cerevisiae, plate reader, cherry-pick, dose response (AID 488815)
CAAX prenyl protease 1, sequence (P47154 whole entry): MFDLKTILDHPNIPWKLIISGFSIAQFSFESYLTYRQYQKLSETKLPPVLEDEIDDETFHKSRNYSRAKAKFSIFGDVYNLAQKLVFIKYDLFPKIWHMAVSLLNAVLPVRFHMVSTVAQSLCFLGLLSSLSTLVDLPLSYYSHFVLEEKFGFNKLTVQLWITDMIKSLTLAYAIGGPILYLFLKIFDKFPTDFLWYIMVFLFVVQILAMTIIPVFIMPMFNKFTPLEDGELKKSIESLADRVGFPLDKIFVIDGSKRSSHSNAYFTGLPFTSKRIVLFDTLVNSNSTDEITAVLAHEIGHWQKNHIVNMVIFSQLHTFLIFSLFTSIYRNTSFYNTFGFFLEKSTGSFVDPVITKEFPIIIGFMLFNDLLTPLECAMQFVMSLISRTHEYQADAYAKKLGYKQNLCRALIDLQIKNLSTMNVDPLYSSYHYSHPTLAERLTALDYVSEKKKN

[8] = target: CAAX prenyl protease 2 (Saccharomyces cerevisiae S288c, UniProt Q03530); type: biochemical
CAAX prenyl protease 2, sequence (Q03530 whole entry): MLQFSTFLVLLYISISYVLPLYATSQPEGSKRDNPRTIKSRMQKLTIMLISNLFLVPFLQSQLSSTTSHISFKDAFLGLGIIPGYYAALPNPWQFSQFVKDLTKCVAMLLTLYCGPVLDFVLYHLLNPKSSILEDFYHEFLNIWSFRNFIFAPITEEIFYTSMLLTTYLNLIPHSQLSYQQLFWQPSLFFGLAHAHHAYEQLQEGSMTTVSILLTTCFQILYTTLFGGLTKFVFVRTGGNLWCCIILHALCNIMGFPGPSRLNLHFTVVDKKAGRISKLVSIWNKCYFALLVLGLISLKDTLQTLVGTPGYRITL

[9] = target: Lysine-specific demethylase 4A (Homo sapiens, UniProt O75164); test: inhibition of JMJD2A H3K9me3 demethylation – biochemical, DELFIA europium, cherry-picked samples, selectivity assay for GASC-1 inhibitor project, dose response (AID 488840)
[10] = target: Lysine-specific demethylase 4C (Homo sapiens, UniProt Q9H3R0); test: inhibition of JMJD2C H3K9me3 demethylation – biochemical, DELFIA europium, cherry-picked samples, dose response (AID 488835); type: functional
Lysine-specific demethylase 4C, sequence (Q9H3R0 whole entry): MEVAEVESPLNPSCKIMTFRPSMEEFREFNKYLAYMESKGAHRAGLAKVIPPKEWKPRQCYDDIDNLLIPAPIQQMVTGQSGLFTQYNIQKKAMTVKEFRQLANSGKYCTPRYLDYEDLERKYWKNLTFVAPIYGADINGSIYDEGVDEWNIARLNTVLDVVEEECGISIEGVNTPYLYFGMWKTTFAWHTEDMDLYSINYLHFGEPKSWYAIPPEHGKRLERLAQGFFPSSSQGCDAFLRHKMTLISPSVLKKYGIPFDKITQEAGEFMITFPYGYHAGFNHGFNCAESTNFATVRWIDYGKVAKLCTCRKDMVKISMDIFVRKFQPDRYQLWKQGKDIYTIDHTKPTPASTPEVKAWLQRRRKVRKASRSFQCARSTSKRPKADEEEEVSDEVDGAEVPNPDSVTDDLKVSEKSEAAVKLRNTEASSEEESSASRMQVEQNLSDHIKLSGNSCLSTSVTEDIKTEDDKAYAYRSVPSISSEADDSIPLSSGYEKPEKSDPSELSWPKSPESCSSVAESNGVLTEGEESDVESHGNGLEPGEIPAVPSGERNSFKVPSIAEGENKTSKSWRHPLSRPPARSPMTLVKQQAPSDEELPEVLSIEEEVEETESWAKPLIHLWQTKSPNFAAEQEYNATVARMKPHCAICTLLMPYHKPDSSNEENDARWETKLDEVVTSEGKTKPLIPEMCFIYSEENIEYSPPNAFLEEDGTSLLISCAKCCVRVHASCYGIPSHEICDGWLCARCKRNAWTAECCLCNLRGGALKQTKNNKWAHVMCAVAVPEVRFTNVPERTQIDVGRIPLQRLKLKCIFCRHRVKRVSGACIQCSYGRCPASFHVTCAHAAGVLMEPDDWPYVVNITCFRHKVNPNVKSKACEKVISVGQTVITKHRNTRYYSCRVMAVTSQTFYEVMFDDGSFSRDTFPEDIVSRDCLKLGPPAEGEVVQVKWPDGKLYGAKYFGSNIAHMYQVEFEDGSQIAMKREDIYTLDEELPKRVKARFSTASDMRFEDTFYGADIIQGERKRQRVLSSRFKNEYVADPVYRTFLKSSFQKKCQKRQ

[11] = target: T2, Mannose-6-phosphate isomerase (Homo sapiens, UniProt P34949); test: MPI inhibition at elevated mannose 6-phosphate – biochemical, fluorescence intensity, high mannose 6-phosphate, primary screen (AID 1220)
T2 sequence (P34949 whole entry): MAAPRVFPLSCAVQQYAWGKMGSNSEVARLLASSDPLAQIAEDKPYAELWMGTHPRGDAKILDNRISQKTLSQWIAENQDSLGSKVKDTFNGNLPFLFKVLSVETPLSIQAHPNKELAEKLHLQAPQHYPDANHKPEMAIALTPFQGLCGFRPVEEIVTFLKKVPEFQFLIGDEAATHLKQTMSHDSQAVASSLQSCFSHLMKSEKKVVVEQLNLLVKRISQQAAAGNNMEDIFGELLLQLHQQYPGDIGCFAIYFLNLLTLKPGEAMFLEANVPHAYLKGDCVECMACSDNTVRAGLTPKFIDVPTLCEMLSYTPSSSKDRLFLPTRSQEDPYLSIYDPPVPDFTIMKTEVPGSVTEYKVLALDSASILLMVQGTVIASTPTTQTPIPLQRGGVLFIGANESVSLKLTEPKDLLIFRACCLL

[12] = target: T3, RNA-binding protein pos-1 (Caenorhabditis elegans, UniProt G5EF15); test: disruptors of C. elegans POS-1 RNA interaction – biochemical, fluorescence polarization, dose response (AID 1964);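 further: purified POS-1 fused to maltose binding protein made in E. coli; potency of compounds blocking POS-1 binding to fluorescent RNA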
T3 sequence (G5EF15 whole entry): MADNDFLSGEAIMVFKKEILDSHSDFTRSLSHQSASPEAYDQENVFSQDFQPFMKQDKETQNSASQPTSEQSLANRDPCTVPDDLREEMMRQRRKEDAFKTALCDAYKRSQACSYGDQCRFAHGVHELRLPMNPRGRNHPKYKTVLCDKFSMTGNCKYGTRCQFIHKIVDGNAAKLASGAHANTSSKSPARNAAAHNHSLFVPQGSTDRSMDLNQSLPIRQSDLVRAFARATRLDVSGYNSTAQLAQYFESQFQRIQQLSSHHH

[13] = target: Exodeoxyribonuclease V (Escherichia coli (strain K12), UniProt P04993+P07648+P08394); test: RecBCD inhibition via phage-restricted bacterial growth – absorbance, V66 E. coli, mutant T4 phage, counter-screen for AddAB inhibitor project, dose response (AID 492957); type: functional, cell-based, Escherichia coli str. K-12 substr. MG1655
[14] = target: T4, Zinc finger protein mex-5 (Caenorhabditis elegans, UniProt Q9XUB2); test: potency of MEX-5 RNA-binding blockers – biochemical, C. elegans, fluorescence polarization, dose response (AID 1960)
T4 sequence (Q9XUB2 whole entry): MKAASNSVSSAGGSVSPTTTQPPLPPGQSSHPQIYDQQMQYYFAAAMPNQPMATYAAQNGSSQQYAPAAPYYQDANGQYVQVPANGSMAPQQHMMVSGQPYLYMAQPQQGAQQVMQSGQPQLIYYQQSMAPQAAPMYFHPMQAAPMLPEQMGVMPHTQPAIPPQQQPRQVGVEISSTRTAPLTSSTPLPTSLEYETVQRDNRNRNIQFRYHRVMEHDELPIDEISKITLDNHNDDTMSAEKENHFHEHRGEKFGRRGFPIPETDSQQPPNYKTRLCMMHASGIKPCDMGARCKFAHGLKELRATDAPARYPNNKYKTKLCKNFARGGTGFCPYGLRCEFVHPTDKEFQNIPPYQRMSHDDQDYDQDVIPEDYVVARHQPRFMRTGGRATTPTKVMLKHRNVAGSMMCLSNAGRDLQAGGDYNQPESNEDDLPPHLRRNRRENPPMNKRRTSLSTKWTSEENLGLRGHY

[15] = Counterscreen for AddAB inhibitors: absorbance-based bacterial cell-based high throughput dose response assay for inhibitors of bacterial viability. [Related pubchem assays (depositor defined):AID435030, AID449728, AID449731, AID488942, AID488955, AID488956]; type: functional
[16] = antibacterial activity against E. coli NEB5alpha – luminescence, counter-screen for MEX-5/POS-1 RNA-binding inhibitor project, dose response (AID 1959); type: functional
[17] = target: Cytochrome P450 2C9 (Homo sapiens, UniProt P11712)
Cytochrome P450 2C9, sequence (P11712 whole entry): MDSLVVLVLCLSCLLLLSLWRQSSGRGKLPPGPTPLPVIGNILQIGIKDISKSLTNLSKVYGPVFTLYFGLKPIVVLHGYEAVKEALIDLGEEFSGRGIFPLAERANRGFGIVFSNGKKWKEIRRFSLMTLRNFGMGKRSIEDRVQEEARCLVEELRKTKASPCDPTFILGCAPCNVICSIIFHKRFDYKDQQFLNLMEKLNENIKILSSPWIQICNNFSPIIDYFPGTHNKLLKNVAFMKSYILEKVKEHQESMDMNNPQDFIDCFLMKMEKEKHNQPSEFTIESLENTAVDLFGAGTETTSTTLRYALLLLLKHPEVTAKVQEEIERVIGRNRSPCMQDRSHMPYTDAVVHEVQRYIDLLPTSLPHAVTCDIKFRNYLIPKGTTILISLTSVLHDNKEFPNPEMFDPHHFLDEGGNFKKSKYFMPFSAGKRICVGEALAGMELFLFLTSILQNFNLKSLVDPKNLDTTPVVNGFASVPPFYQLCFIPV

[18] = target: Cytochrome P450 2D6 (Homo sapiens, UniProt P10635);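 further: CYP2D6 member of a cytochrome P450 panel assay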
Cytochrome P450 2D6, sequence (P10635 whole entry): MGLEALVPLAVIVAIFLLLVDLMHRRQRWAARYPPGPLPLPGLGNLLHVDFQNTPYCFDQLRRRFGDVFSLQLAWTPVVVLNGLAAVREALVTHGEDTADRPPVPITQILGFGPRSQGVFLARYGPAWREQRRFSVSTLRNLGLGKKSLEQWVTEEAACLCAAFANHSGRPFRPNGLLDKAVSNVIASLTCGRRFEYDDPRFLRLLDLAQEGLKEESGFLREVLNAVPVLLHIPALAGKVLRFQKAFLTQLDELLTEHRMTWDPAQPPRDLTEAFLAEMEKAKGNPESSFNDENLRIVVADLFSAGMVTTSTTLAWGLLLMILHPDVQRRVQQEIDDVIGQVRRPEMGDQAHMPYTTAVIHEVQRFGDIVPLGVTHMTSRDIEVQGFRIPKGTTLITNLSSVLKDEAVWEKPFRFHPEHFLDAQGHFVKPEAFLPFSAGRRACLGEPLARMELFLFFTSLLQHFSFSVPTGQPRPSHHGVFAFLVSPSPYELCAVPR

[19] = T. cruzi infection blockers in NIH3T3 cells – beta-gal luminescence, NIH3T3 host cells, confirmation (AID 2630); type: functional, cell-based; details: Mus musculus
[20] = Luminescence Cell-Based Secondary HTS screen to identify cytotoxic compounds of NIH3T3 cells. [Related pubchem assays: 1885, 1968 ]; type: functional
[21] = Luminescence Cell-Based/Microorganism Confirmation at Dose of Inhibitors of Trypanosoma cruzi Infection. [Related pubchem assays: 1885, 1968 ]; type: functional
[22] = target: T5, Nucleotide-binding oligomerization domain-containing protein 2 (Homo sapiens, UniProt Q9HC29); test: PubChem AID 2334; type: functional
T5 sequence (Q9HC29 whole entry, the tested form may be a part): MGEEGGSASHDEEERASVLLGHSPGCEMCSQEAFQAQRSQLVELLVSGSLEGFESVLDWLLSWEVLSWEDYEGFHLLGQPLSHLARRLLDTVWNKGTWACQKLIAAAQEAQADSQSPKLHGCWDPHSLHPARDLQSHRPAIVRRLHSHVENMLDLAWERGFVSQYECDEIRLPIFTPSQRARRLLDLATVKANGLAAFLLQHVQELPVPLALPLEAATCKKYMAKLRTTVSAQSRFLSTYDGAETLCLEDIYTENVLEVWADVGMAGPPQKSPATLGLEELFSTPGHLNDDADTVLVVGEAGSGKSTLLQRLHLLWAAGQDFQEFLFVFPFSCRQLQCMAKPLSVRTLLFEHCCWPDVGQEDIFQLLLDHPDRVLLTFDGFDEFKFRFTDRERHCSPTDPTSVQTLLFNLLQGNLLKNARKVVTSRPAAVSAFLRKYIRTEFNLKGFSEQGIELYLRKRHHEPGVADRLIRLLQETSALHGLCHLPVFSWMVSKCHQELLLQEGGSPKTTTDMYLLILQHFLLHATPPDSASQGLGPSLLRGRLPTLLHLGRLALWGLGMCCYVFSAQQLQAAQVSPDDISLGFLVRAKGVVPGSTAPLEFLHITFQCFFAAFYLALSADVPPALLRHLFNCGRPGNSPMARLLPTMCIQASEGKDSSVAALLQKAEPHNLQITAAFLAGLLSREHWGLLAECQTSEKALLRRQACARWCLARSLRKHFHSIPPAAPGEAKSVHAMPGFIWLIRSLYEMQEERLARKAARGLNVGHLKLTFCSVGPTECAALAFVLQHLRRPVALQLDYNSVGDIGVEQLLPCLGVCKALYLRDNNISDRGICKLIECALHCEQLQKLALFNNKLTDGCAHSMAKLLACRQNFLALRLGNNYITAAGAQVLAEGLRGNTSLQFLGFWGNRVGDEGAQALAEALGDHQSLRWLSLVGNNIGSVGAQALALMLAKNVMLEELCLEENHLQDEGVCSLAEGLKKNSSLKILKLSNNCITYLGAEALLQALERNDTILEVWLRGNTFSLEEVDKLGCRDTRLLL

[23] = test system: HEK293; test: inhibition of NOD1-driven NF-kB reporter – cell-based, luminescence, uHTS, primary screen (AID 1578); type: functional; details: Homo sapiens
[24] = target: T6, Nucleotide-binding oligomerization domain-containing protein 1 (Homo sapiens, UniProt Q9Y239); test: blockers of NOD1 pathway activity – revised, SAR follow-up (AID 2333); type: functional
T6 sequence (Q9Y239 whole entry): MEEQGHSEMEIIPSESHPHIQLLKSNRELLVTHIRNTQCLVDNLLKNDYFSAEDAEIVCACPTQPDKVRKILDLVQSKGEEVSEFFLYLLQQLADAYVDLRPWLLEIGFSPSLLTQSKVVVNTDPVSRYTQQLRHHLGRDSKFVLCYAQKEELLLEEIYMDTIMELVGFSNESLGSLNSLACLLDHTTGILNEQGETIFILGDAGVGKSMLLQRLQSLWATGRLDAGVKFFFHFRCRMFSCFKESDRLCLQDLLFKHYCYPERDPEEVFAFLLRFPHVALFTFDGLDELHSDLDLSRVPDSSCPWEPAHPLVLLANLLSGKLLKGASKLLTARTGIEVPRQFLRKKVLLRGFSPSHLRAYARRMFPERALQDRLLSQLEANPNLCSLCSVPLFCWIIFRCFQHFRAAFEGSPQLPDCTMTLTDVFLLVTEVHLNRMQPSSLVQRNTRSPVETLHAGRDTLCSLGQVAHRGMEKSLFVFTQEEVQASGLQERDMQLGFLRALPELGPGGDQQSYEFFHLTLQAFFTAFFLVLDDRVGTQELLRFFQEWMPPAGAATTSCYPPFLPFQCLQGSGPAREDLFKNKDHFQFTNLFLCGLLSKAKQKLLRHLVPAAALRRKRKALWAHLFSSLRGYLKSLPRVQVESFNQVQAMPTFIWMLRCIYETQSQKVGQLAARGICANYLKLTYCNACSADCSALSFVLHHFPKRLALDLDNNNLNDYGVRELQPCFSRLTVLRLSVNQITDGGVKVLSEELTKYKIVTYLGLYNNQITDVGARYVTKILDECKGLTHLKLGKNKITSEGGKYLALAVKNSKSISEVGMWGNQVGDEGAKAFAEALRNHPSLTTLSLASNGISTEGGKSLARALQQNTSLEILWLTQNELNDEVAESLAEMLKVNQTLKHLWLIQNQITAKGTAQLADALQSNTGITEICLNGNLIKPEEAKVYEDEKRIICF

[25] = test system: HEK293; test: cells; details: Homo sapiens
[26] = target: T5, Nucleotide-binding oligomerization domain-containing protein 2; test: inhibition of NOD2-driven NF-kB reporter – cell-based, luminescence, uHTS, HEK293 (AID 1566); type: functional
[27] = test system: HEK293; test: cells; type: functional, cell-based; details: Homo sapiens
[28] = test system: HEK293; test: cells; type: functional, cell-based; details: Homo sapiens; remark: listed apart in the source
[29] = target: Tumor necrosis factor (Homo sapiens, UniProt P01375); test: analog potency on TNFa NF-kB signaling – cell-based, revised, SAR follow-up (AID 2337); type: functional
Tumor necrosis factor, sequence (P01375 whole entry): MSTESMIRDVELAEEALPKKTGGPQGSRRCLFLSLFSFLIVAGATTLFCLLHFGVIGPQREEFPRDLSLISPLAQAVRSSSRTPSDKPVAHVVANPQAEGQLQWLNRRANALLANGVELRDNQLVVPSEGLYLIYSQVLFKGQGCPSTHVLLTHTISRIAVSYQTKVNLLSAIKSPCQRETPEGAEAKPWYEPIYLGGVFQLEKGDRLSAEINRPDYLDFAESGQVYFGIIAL

[30] = test system: HEK293; test: NOD2 signaling inhibitors in MDP-stimulated cells, cell-based, uHTS, luminescence (AID 2001); type: functional; details: Homo sapiens
[31] = test system: HEK293; test: cells; type: functional, cell-based; details: Homo sapiens; remark: listed apart in the source

SMILES: O=C(CSc1nnnn1C1CC2CCC1C2)Nc1ccnc2ccccc12 (stereo unspecified)
- EC50 [1]: > 29.9 µM (inactive)
- IC50 [2]: 61.4 µM (inactive)
- IC50 [3]: 0.568 µM (active)
- IC50 [4]: 0.0869 µM (active)
- IC50 [5]: 45.1 µM (inactive)
- IC50 [6]: > 42 µM (not active)

SMILES: Cc1ccc2c(C)c(C(=O)N(Cc3ccc(F)cc3)C3CCS(=O)(=O)C3)oc2c1 (stereo unspecified)
- AC50 [7]: 26.5 µM (active)
- AC50 [8]: > 100 µM (inactive)

SMILES: CCOC(=O)C1=C(C)NC(=O)NC1c1c(C)nn(-c2ccccc2)c1Cl (stereo unspecified)
- AC50 [9]: 8.63 µM (active)
- AC50 [10]: 1.22 µM (active)
- IC50 [11]: 5.4 µM (active)

SMILES: COc1ccc2[nH]c3c(c2c1)CCNC3c1ccc([N+](=O)[O-])o1 (stereo unspecified)
- EC50 [12]: 5.82 µM (inconclusive)
- IC50 [13]: > 119 µM (inactive)
- EC50 [14]: 4.34 µM (inconclusive)
- IC50 [15]: > 119 µM (inactive)
- EC50 [16]: 34.1 µM (active)

SMILES: O=[N+]([O-])c1ccc(N2CCOCC2)nc1
- AC50 [17]: 7.94 µM (inconclusive)
- AC50 [18]: inconclusive

SMILES: CCc1ccc2nc(N(CCN(C)C)C(=O)c3ccc4ncsc4c3)sc2c1
- EC50 [19]: 0.176 µM (active)
- EC50 [20]: > 195 µM (inconclusive)
- EC50 [21]: 0.176 µM (active)

SMILES: COc1ccc(NC(C)=O)cc1S(=O)(=O)Nc1ccc(OCc2ccccc2)cc1
- IC50 [22]: 16.6 µM (active)
- EC50 [23]: 13.7 µM (active)
- IC50 [24]: 12.7 µM (active)
- IC50 [25]: > 20 µM (inactive)
- EC50 [26]: 12.3 µM (active)
- IC50 [27]: > 20 µM (inactive)
- IC50 [28]: > 20 µM (inactive)
- IC50 [29]: 18 µM (active)
- IC50 [30]: > 20 µM (inactive)
- IC50 [31]: > 20 µM (inactive)
